From patent US20140212382A1, “PURINE MONOPHOSPHATE PRODRUGS FOR TREATMENT OF VIRAL INFECTIONS” (EMORY UNIVERSITY, priority 2011, published 2014)

How the values were obtained:
[1] = system: MtDNA, HepG2 Hepatoma cells; assay: Mitochondrial toxicity in HepG2 cells: mitochondrial DNA content; type: cell-based; details: HepG2 Hepatoma cells, 14 day assay; for % Inhibition MtDNA: 10 μM
Excerpt: A real-time PCR assay to accurately quantify mitochondrial DNA content has been developed (see Stuyver L J, Lostia S, Adams M, Mathew J S, Pai B S, Grier J, Tharnish P M, Choi Y, Chong Y, Choo H, Chu C K, Otto M J, Schinazi R F. Antiviral activities and cellular toxicities of modified 2′,3′-dideoxy-2′,3′-didehydrocytidine analogs. Antimicrob. Agents Chemother. 2002; 46: 3854-60). This assay was used in all studies described in this application that determine the effect of nucleoside analogs on mitochondrial DNA content. In this assay, low-passage-number HepG2 cells were seeded at 5,000 cells/well in collagen-coated 96-well plates. Nucleoside monophosphate analogs were added to the medium to obtain final concentrations of 0 μM, 0.1 μM, 10 μM and 100 μM. On culture day 7, cellular nucleic acids were prepared by using commercially available columns (RNeasy 96 kit; Qiagen). […] The mitochondrial cytochrome c oxidase subunit II (COXII) gene and the β-actin or rRNA gene were amplified from 5 μl of the eluted nucleic acids using a multiplex Q-PCR protocol with suitable primers and probes for both target and reference amplifications. For COXII the following sense, probe and antisense primers are used, respectively: 5′-[…]-3′,5′-tetrachloro-6-carboxyfluorescein-[…]-TAMRA-3′ and 5′-[…]-3′. For exon 3 of the β-actin gene (GenBank accession number E01094) the sense, probe, and antisense primers are 5′-[…]-3′,5′-6-[…]-3′ and 5′-[…]-3′, respectively. The primers and probes for the rRNA gene are commercially available from Applied Biosystems. Since equal amplification efficiencies were obtained for all genes, the comparative CT method was used to investigate potential inhibition of mitochondrial DNA synthesis. The comparative CT method uses arithmetic formulas in which the amount of target (COXII gene) is normalized to the amount of an endogenous reference (the β-actin or rRNA gene) and is relative to a calibrator (a control with no drug at day 7). The arithmetic formula for this approach is given by 2-ΔΔCT, where ΔΔCT is (CT for average target test sample−CT for target control)−(CT for average reference test−CT for reference control) (see Johnson M R, K Wang, J B Smith, M J Heslin, R B Diasio. Quantitation of dihydropyrimidine dehydrogenase expression by real-time reverse transcription polymerase chain reaction. Anal. Biochem. 2000; 278:175-184). A decrease in mitochondrial DNA content in cells grown in the presence of drug would indicate mitochondrial toxicity.
(§1) The effect of compounds 8b-up, 12, and 8a on nuclear or mitochondrial DNA, or lactic acid production, in HepG2 Hepatoma cells was analyzed over a 14 day period. The procedure outlined in section (i) above was used for this analysis.

[2] = system: HCV Replicon RNA in Huh 7 Clone B cells; assay: HCV replicon assay; type: cell-based; details: HCV replicon assay
Experimental: Huh 7 Clone B cells containing HCV Replicon RNA were seeded in a 96-well plate at 5000 cells/well, and the compounds tested at 10 μM in triplicate immediately after seeding. Following five days incubation (37° C., 5% CO2), total cellular RNA was isolated using the versaGene RNA purification kit from Gentra. Replicon RNA and an internal control (TaqMan rRNA control reagents, Applied Biosystems) were amplified in a single step multiplex Real Time RT-PCR Assay. The antiviral effectiveness of the compounds was calculated by subtracting the threshold RT-PCR cycle of the test compound from the threshold RT-PCR cycle of the no-drug control (ΔCt HCV). A ΔCt of 3.3 equals a 1-log reduction (equal to 90% less starting material) in Replicon RNA levels. The cytotoxicity of the compounds was also calculated using the ΔCt rRNA values. (2′-C-Me-C) was used as the control. To determine EC90 and IC50 values^2, ΔCt: values were first converted into a fraction of the starting material,^3 and then were used to calculate the % inhibition. The data on three compounds (Compound 12, Compound 8a, and compound 8b-up) is shown below in Table 3.

HCV 1a replicon = assay: HCV replicon, genotype 1a; type: cell-based
HCV 1b replicon = assay: HCV replicon, genotype 1b; type: cell-based
HCV 2a replicon = assay: HCV replicon, genotype 2a; type: cell-based
HCV 2b chimera replicon = assay: HCV replicon, 2b chimera; type: cell-based
HCV 3a chimera replicon = assay: HCV replicon, 3a chimera; type: cell-based
HCV 4a chimera replicon = assay: HCV replicon, 4a chimera; type: cell-based
HCV 5a chimera replicon = assay: HCV replicon, 5a chimera; type: cell-based
HCV 1b S282T replicon = assay: HCV resistant replicon 1b S282T; type: cell-based
HCV 1b C316Y replicon = assay: HCV resistant replicon 1b C316Y; type: cell-based
HCV 1b M414I replicon = assay: HCV resistant replicon 1b M414I; type: cell-based
HepG2 Hepatoma cells = assay: Lactic acid production in HepG2 cells; type: cell-based; details: 10 μM, 14 day assay
Experimental: The effect on the growth of HepG2 cells was determined by incubating cells in the presence of 0 μM, 0.1 μM, 1 μM, 10 μM and 100 μM drug. Cells (5×10^4 per well) were plated into 12-well cell culture clusters in minimum essential medium with nonessential amino acids supplemented with 10% fetal bovine serum, 1% sodium pyruvate, and 1% penicillin/streptomycin and incubated for 4 days at 37° C. At the end of the incubation period the cell number was determined using a hemocytometer. Also taught by Pan-Zhou X-R, Cui L, Zhou X-J, Sommadossi J-P, Darley-Usmer V M. “Differential effects of antiretroviral nucleoside analogs on mitochondrial function in HepG2 cells” Antimicrob. Agents Chemother. 2000; 44: 496-503. […] At day 4 the number of cells in each well was determined and the culture medium collected. The culture medium was filtered, and the lactic acid content in the medium determined using a colorimetric lactic acid assay (Sigma-Aldrich). Since lactic acid product can be considered a marker for impaired mitochondrial function, elevated levels of lactic acid production detected in cells grown in the presence of 2,6-diamino 2′-C-Me purine nucleoside monophosphate prodrug analogs would indicate a drug-induced cytotoxic effect.
The effect of compounds 8b-up, 12, and 8a on nuclear or mitochondrial DNA, or lactic acid production, in HepG2 Hepatoma cells was analyzed over a 14 day period. […]

adenosine deaminase = assay: Adenosine deaminase assay; type: in vitro ADME; details: 7 minutes with 0.002 units of enzyme; 50 μM, pH 7.4, 25° C.
Experimental: To determine the propensity for deamination of the nucleosides and monophosphate prodrugs by adenosine deaminase, nucleoside analogues can be incubated with the commercially available purified enzyme, and the reaction can be followed spectrophotometrically. Typical reaction conditions involve preparing a solution containing 50 μM nucleoside analog in 0.5 mL 50 mM potassium phosphate (pH 7.4) at 25° C. The typical reaction time is 7 minutes with 0.002 units of enzyme, and 120 minutes with 0.2 units of enzyme. (The unit definition of adenosine deaminase is one unit will deaminate 1.0 μmol of adenosine to inosine per minute at pH 7.5 at 25° C.) Deoxyadenosine is typically used as a positive control. Deoxyadenosine is 59% deaminated under the given conditions in 7 minutes with 0.002 units of enzyme. Deoxyguanosine is typically used as a negative control. Optical density can be measured at 265 nm or 285 nm. The difference in optical density between the beginning and the end of the experiment is divided by the extinction coefficient, and then multiplied by the volume of the reaction to determine the number of mols of substrate transformed into product. Mols of product would be divided by mols of substrate equivalent to a 100% complete reaction then multiplied by 100 to obtain percent deamination. The limit of detection is typically 0.001 optical density units.

[3] = system: nuclear DNA, HepG2 Hepatoma cells; assay: Mitochondrial toxicity in HepG2 cells: nuclear DNA content; type: cell-based; details: 10 μM; HepG2 Hepatoma cells, 14 day assay
Experimental: This assay was used in all studies described in this application that determine the effect of nucleoside analogs on mitochondrial DNA content. In this assay, low-passage-number HepG2 cells were seeded at 5,000 cells/well in collagen-coated 96-well plates. […] On culture day 7, cellular nucleic acids were prepared by using commercially available columns (RNeasy 96 kit; Qiagen). […] The mitochondrial cytochrome c oxidase subunit II (COXII) gene and the β-actin or rRNA gene were amplified from 5 μl of the eluted nucleic acids using a multiplex Q-PCR protocol with suitable primers and probes for both target and reference amplifications. […] For exon 3 of the β-actin gene (GenBank accession number E01094) the sense, probe, and antisense primers are 5′-[…]-3′,5′-6-[…]-3′ and 5′-[…]-3′, respectively. The primers and probes for the rRNA gene are commercially available from Applied Biosystems. […] The comparative CT method uses arithmetic formulas in which the amount of target (COXII gene) is normalized to the amount of an endogenous reference (the β-actin or rRNA gene) and is relative to a calibrator (a control with no drug at day 7). The arithmetic formula for this approach is given by 2-ΔΔCT, where ΔΔCT is (CT for average target test sample−CT for target control)−(CT for average reference test−CT for reference control) (see Johnson M R, K Wang, J B Smith, M J Heslin, R B Diasio. Quantitation of dihydropyrimidine dehydrogenase expression by real-time reverse transcription polymerase chain reaction. Anal. Biochem. 2000; 278:175-184). A decrease in mitochondrial DNA content in cells grown in the presence of drug would indicate mitochondrial toxicity.
as §1

[4] = Cytotoxicity assay, PBM cells; type: cell-based; details: human
Experimental: (§2) The toxicity of the compounds was assessed in Vero, human PBM, CEM (human lymphoblastoid), and HepG2 cells, as described previously (see Schinazi R. F., Sommadossi J.-P., Saalmann V., Cannon D. L., Xie M.-Y., Hart G. C., Smith G. A. & Hahn E. F. Antimicrob. Agents Chemother. 1990, 34, 1061-67). Cycloheximide was included as positive cytotoxic control, and untreated cells exposed to solvent would be included as negative controls. The cytotoxicity IC50 was obtained from the concentration-response curve using the median effective method described previously (see Chou T.-C. & Talalay P. Adv. Enzyme Regul. 1984, 22, 27-55; Belen'kii M. S. & Schinazi R. F. Antiviral Res. 1994, 25, 1-11).

[5] = Cytotoxicity assay, CEM cells; type: cell-based; details: human
Experimental: as §2

[6] = Cytotoxicity assay, Vero cells; type: cell-based; details: African green monkey
Experimental: as §2

HepG2 cells = details: 10 μM; cited from earlier work

With `CCOC(=O)CCc1ccccc1OP(=O)(NC(C)C(=O)OCC)OC[C@H]1O[C@@H](n2cnc3c(N)nc(N)nc32)C(C)(O)C1O` (single isomer, unassigned) [Compound 8b-up] the “effect on nuclear or mitochondrial DNA or lactic acid production” value ([1]; up to 50 μM, summary also covers nuclear DNA and lactic acid) was “no significant effect”, the “times more potent than 8b-down” value [2] was “approximately 10” and the “Fold increase versus 1b WT at the EC90” value (HCV 1a replicon) was “++ (++ = 1.1 to 2)”. The “Fold increase versus 1b WT at the EC90” value (HCV 1b replicon) was “+ (+ = 0.1 to 1)”, the “Fold increase versus 1b WT at the EC90” value (HCV 2a replicon) was “++ (++ = 1.1 to 2)” and the “Fold increase versus 1b WT at the EC90” value (HCV 2b chimera replicon) was “++ (++ = 1.1 to 2)”. The “Fold increase versus 1b WT at the EC90” value (HCV 3a chimera replicon) was “+ (+ = 0.1 to 1)”, the “Fold increase versus 1b WT at the EC90” value (HCV 4a chimera replicon) was “+++ (+++ = 2.1 to 3)” and the “Fold increase versus 1b WT at the EC90” value (HCV 5a chimera replicon) was “++ (++ = 1.1 to 2)”. For the same molecule, the “Fold increase versus 1b WT at the EC90” value (HCV 1b S282T replicon) was “+ (+ = 0.1 to 1)”, the “Fold increase versus 1b WT at the EC90” value (HCV 1b C316Y replicon) was “++ (++ = 1.1 to 2)” and the “Fold increase versus 1b WT at the EC90” value (HCV 1b M414I replicon) was “+++ (+++ = 2.1 to 3)”.

For `Nc1ccn([C@@H]2CS[C@H](CO)O2)c(=O)n1` [Compound 3TC, reference compound], the “% Inhibition MtDNA” value [1] was <1/<1% and the “Lactic acid levels (% of control) ± SD” value (HepG2 Hepatoma cells) was 91 ± 2.5 % of control.

Molecule `Nc1ncnc2c1ncn2[C@H]1C[C@H](O)[C@@H](CO)O1` [Deoxyadenosine] has a percent deamination (adenosine deaminase) of 59%.

With `Nc1ccn([C@H]2CC[C@@H](CO)O2)c(=O)n1` [ddC, reference compound] the “% Inhibition MtDNA” value [1] was 100%, the “% Inhibition nuclear DNA” value [3] was 72% and the “Lactic acid levels (% of control) ± SD” value (HepG2 Hepatoma cells) was 220 ± 11 % of control.

With `CC1(O)C(O)[C@@H](CO)O[C@H]1n1cnc2c(N)nc(N)nc21` (stereo partly shown) [drawing 52] the CC50 ([4]; PBM cells) was > 100 µM, the CC50 ([5]; CEM lymphoblastoid cells) was > 100 µM and the CC50 ([6]; Vero cells) was > 100 µM.

In the case of `CCOC(=O)[C@H](C)NP(=O)(OC[C@H]1O[C@@H](n2cnc3c(N)nc(N)nc32)C(C)(O)C1O)Oc1ccccc1` (stereo partly shown) [drawing 53], the CC50 ([4]; PBM) is reported as > 100 µM, the CC50 ([5]; CEM) is reported as > 100 µM and the CC50 ([6]; Vero) is reported as > 100 µM.

For `CCOC(=O)CCc1ccccc1OP(=O)(N[C@H](C)C(=O)OCC)OC[C@H]1O[C@@H](n2cnc3c(N)nc(N)nc32)C(C)(O)C1O` (stereo partly shown) [drawing 54], the CC50 ([4]; PBM) was > 100 µM, the CC50 ([5]; CEM) was > 100 µM and the CC50 ([6]; Vero) was > 100 µM.

For `O=c1[nH]c(=O)n([C@@H]2O[C@H](CO)[C@@H](O)[C@@H]2F)cc1I` [fialuridine, 1,2′-deoxy-2′-fluoro-1-D-arabinofuranosly-5-iodo-uracil], the “morphological changes in mitochondria (electron micrographs)” value (HepG2 cells) is listed as “presence of enlarged mitochondria with morphological changes consistent with mitochondrial dysfunction”.
